Laboratory results from US12404295B2, “(Hetero)aryl-methyl-thio-beta-D-galactopyranoside derivatives” (Idorsia Pharmaceuticals Ltd, priority 2019, dated 2025).
Read-outs that look alike come from different tables or passages of the source.

What was measured:
[1] = biological target: human Gal-3 (hGal-3) (Homo sapiens (Human), UniProt P17931); assay: competitive binding assay: biotinylated hGal-3 binding to microplate-adsorbed asialofetuin (ASF)
Description: If not explicitly mentioned otherwise, the inhibition data refer to the binding of biotinylated human Gal-3 (hGal-3).
(§1) Evaluation of Compound Inhibitory Activity (IC50)
The inhibitory activity of compounds is determined in competitive binding assays.
Briefly, compounds are serially diluted in DMSO (working dilutions).
(§2) Plates are incubated for 3 hours at 4° C., then washed with cold assay buffer (3×50 uL), incubated for 1 hour with 25 μL/well of a streptavidin-peroxidase solution (diluted in assay buffer to 80 ng/mL) at 4° C., followed by further washing steps with assay buffer (3×50 uL). Finally, 25 μL/well of ABTS substrate is added.
(§3) The calculated IC50 values may fluctuate depending on the daily assay performance. Fluctuations of this kind are known to those skilled in the art. IC50 values from several measurements are given as mean values.

[2] = biological target: human Gal-1 (hGal-1) (Homo sapiens (Human), UniProt P09382); assay: competitive binding assay: biotinylated hGal-1 binding to microplate-adsorbed asialofetuin (ASF); settings: Table 15; read-out: IC50 (Galectin-1 inhibition)
Description: Inhibition data of the epimers R and S of selected Examples are also listed.
as §1
The inhibitory activity of compounds is determined in competitive binding assays. This spectrophotometric assay measures the binding of biotinylated human Gal-3 (hGal-3) or human Gal-1 (hGal-1), respectively, to a microplate-adsorbed glycoprotein, asialofetuin (ASF) (Proc Natl Acad Sci USA. 2013 Mar. 26; 110(13):5052-7.).
Briefly, compounds are serially diluted in DMSO (working dilutions). ASF-coated 384 well plates are supplemented with 22.8 μL/well of biotinylated hGal-3 or hGal-1 in assay buffer (i.e. 300-1000 ng/mL biotinylated hGal-3 or hGal-1) to which 1.2 μL of compound working dilutions are added and mixed.
as §2, §3

[3] = Gal-3 inhibition, binding of biotinylated hGal-3 to ASF, mean values, read-out: IC50

human Gal-3 (hGal-3), sequence (P17931 whole entry): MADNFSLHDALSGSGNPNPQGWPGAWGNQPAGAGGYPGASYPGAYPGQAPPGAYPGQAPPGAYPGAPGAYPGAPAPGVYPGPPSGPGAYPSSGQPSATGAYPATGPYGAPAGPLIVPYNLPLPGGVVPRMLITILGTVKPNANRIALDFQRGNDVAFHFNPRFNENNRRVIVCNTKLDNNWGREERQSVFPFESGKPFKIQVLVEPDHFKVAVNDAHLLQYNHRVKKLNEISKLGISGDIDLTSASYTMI
human Gal-1 (hGal-1), sequence (P09382 whole entry): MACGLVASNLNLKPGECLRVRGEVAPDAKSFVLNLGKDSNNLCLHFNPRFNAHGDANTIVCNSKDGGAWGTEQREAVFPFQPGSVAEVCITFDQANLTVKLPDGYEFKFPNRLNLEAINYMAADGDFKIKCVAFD

Row | Compound | IC50 [1, 3] | IC50 [2] | IC50 ([1]; Table 11, read-out: IC50 (Gal-3 inhibition))
1 | Cc1c(F)cccc1[C@H](S[C@@H]1O[C@H](CO)[C@H](O)[C@H](n2cc(-c3cc(F)c(F)c(F)c3)nn2)[C@H]1O)C(C)(C)O (single isomer, unassigned) [Example 2.31.114R.] | 180 nM | 7240 nM | –
2 | CO[C@@H]1[C@@H](n2cc(-c3cc(F)c(F)c(F)c3)nn2)[C@@H](O)[C@@H](CO)O[C@H]1S[C@@H](c1nccc(Cl)c1Cl)C1(O)CCC(F)(F)CC1 (single isomer, unassigned) [Example 2.44.143R.I.] | – | 860 nM | 70 nM
3 | Cc1ccccc1C(S[C@@H]1O[C@H](CO)[C@H](O)[C@H](n2cc(-c3cc(F)c(F)c(F)c3)nn2)[C@H]1O)C(C)(C)O (stereo partly drawn) [Example 2.31.102., (2S,3R,4S,5R,6R)-2-((2-Hydroxy-2-methyl-1-(o-tolyl)propyl)thio)-6-(hydroxymethyl)-4-(4-(3,4,5-trifluorophenyl)-1H-1,2,3-triazol-1-yl)tetrahydro-2H-pyran-3,5-diol] | 170 nM | 2140 nM | –
4 | Cc1nc(C(S[C@@H]2O[C@H](CO)[C@H](O)[C@H](n3cc(-c4cc(F)c(F)c(F)c4)nn3)[C@H]2O)C(C)(C)O)c(C)s1 (stereo partly drawn) [Example 2.31.123., (2S,3R,4S,5R,6R)-2-((1-(2,5-Dimethylthiazol-4-yl)-2-hydroxy-2-methylpropyl)thio)-6-(hydroxymethyl)-4-(4-(3,4,5-trifluorophenyl)-1H-1,2,3-triazol-1-yl)tetrahydro-2H-pyran-3,5-diol] | – | 1740 nM | –
5 | Cc1nc([C@@H](S[C@@H]2O[C@H](CO)[C@H](O)[C@H](n3cc(-c4cc(F)c(F)c(F)c4)nn3)[C@H]2O)C(C)(C)O)c(C)s1 [Example 2.31.123R., (2S,3R,4S,5R,6R)-2-(((R)-1-(2,5-Dimethylthiazol-4-yl)-2-hydroxy-2-methylpropyl)thio)-6-(hydroxymethyl)-4-(4-(3,4,5-trifluorophenyl)-1H-1,2,3-triazol-1-yl)tetrahydro-2H-pyran-3,5-diol] | – | 1190 nM | –
6 | Cc1nc([C@H](S[C@@H]2O[C@H](CO)[C@H](O)[C@H](n3cc(-c4cc(F)c(F)c(F)c4)nn3)[C@H]2O)C(C)(C)O)c(C)s1 [Example 2.31.123S., (2S,3R,4S,5R,6R)-2-(((S)-1-(2,5-Dimethylthiazol-4-yl)-2-hydroxy-2-methylpropyl)thio)-6-(hydroxymethyl)-4-(4-(3,4,5-trifluorophenyl)-1H-1,2,3-triazol-1-yl)tetrahydro-2H-pyran-3,5-diol] | – | 29400 nM | –
7 | CO[C@@H]1[C@@H](n2cc(-c3cc(F)c(F)c(F)c3)nn2)[C@@H](O)[C@@H](CO)O[C@H]1S[C@H](c1ccccc1C(F)(F)F)[C@]1(O)CCOC(C)(C)C1 [Example 2.43.112RS.I., (2R,3R,4S,5R,6S)-6-(((R)-((S)-4-Hydroxy-2,2-dimethyltetrahydro-2H-pyran-4-yl)(2-(trifluoromethyl)phenyl)methyl)thio)-2-(hydroxymethyl)-5-methoxy-4-(4-(3,4,5-trifluorophenyl)-1H-1,2,3-triazol-1-yl)tetrahydro-2H-pyran-3-ol] | – | 1300 nM | –
8 | OC[C@H]1O[C@@H](S[C@H](c2ccccc2Cl)C2(O)CCC(F)(F)CC2)[C@H](O)[C@@H](n2cc(-c3cc(F)c(F)c(F)c3)nn2)[C@H]1O [Example 2.44.111R., (2S,3R,4S,5R,6R)-2-(((R)-(2-Chlorophenyl)(4,4-difluoro-1-hydroxycyclohexyl)methyl)thio)-6-(hydroxymethyl)-4-(4-(3,4,5-trifluorophenyl)-1H-1,2,3-triazol-1-yl)tetrahydro-2H-pyran-3,5-diol] | – | 1060 nM | –
9 | OC[C@H]1O[C@@H](S[C@@H](c2ccccc2Cl)C2(O)CCC(F)(F)CC2)[C@H](O)[C@@H](n2cc(-c3cc(F)c(F)c(F)c3)nn2)[C@H]1O [Example 2.44.111S., (2S,3R,4S,5R,6R)-2-(((S)-(2-Chlorophenyl)(4,4-difluoro-1-hydroxycyclohexyl)methyl)thio)-6-(hydroxymethyl)-4-(4-(3,4,5-trifluorophenyl)-1H-1,2,3-triazol-1-yl)tetrahydro-2H-pyran-3,5-diol] | – | 47500 nM | –
10 | CC(C)Cc1c([C@@H](S[C@@H]2O[C@H](CO)[C@H](O)[C@H](n3cc(-c4cc(F)c(F)c(F)c4)nn3)[C@H]2O)C2(O)CCC(F)(F)CC2)noc1C1CC1 [Example 2.44.131 R., (2S,3R,4S,5R,6R)-2-(((R)-(5-Cyclopropyl-4-isobutylisoxazol-3-yl)(4,4-difluoro-1-hydroxycyclohexyl)methyl)thio)-6-(hydroxymethyl)-4-(4-(3,4,5-trifluorophenyl)-1H-1,2,3-triazol-1-yl)tetrahydro-2H-pyran-3,5-diol] | – | 90 nM | –
11 | CC(C)Cc1c(C(S[C@@H]2O[C@H](CO)[C@H](O)[C@H](n3cc(-c4cc(F)c(F)c(F)c4)nn3)[C@H]2O)C2(O)CCC(F)(F)CC2)noc1C1CC1 (stereo partly drawn) [Example 2.44.131., (2S,3R,4S,5R,6R)-2-(((5-Cyclopropyl-4-isobutylisoxazol-3-yl)(4,4-difluoro-1-hydroxycyclohexyl)methyl)thio)-6-(hydroxymethyl)-4-(4-(3,4,5-trifluorophenyl)-1H-1,2,3-triazol-1-yl)tetrahydro-2H-pyran-3,5-diol] | – | 220 nM | –
12 | CO[C@@H]1[C@@H](n2cc(-c3cc(F)c(F)c(F)c3)nn2)[C@@H](O)[C@@H](CO)O[C@H]1SC(c1ncccc1C)C1(O)CCC2(CCOCC2)CC1 (stereo partly drawn) [Example 2.72.126.I., 9-((((2S,3R,4S,5R,6R)-5-Hydroxy-6-(hydroxymethyl)-3-methoxy-4-(4-(3,4,5-trifluorophenyl)-1H-1,2,3-triazol-1-yl)tetrahydro-2H-pyran-2-yl)thio)(3-methylpyridin-2-yl)methyl)-3-oxaspiro[5.5]undecan-9-ol] | – | 730 nM | –
13 | CO[C@@H]1[C@@H](n2cc(-c3cnc(F)c(C)c3)nn2)[C@@H](O)[C@@H](CO)O[C@H]1SC(c1ncccc1C)C1(O)CCC(F)(F)CC1 (stereo partly drawn) [Example 24.44.126.I, (2R,3R,4S,5R,6S)-6-(((4,4-Difluoro-1-hydroxycyclohexyl)(3-methylpyridin-2-yl)methyl)thio)-4-(4-(6-fluoro-5-methylpyridin-3-yl)-1H-1,2,3-triazol-1-yl)-2-(hydroxymethyl)-5-methoxytetrahydro-2H-pyran-3-ol] | – | 160 nM | –

Next, values leading:

Row | IC50 [1, 3] | IC50 [2] | IC50 ([1]; Table 11, read-out: IC50 (Gal-3 inhibition)) | Compound
14 | 1700 nM | 5770 nM | – | OCC(S[C@@H]1O[C@H](CO)[C@H](O)[C@H](n2cc(-c3cccc(F)c3)nn2)[C@H]1O)c1ccccc1Br (stereo partly drawn) [Example 1.30.101., (2S,3R,4S,5R,6R)-2-((1-(2-Bromophenyl)-2-hydroxyethyl)thio)-4-(4-(3-fluorophenyl)-1H-1,2,3-triazol-1-yl)-6-(hydroxymethyl)tetrahydro-2H-pyran-3,5-diol]
15 | 2900 nM | 56300 nM | – | COCC(S[C@@H]1O[C@H](CO)[C@H](O)[C@H](n2cc(-c3cc(F)c(F)c(F)c3)nn2)[C@H]1O)c1ccccc1 (stereo partly drawn) [Example 2.30.100.OMe, (2R,3R,4S,5R,6S)-2-(Hydroxymethyl)-6-((2-methoxy-1-phenylethyl)thio)-4-(4-(3,4,5-trifluorophenyl)-1H-1,2,3-triazol-1-yl)tetrahydro-2H-pyran-3,5-diol, reference compound]
16 | 400 nM | 1730 nM | – | CC(C)c1ccccc1C(CO)S[C@@H]1O[C@H](CO)[C@H](O)[C@H](n2cc(-c3cc(F)c(F)c(F)c3)nn2)[C@H]1O (stereo partly drawn) [Example 2.30.105., (2S,3R,4S,5R,6R)-2-((2-Hydroxy-1-(2-isopropylphenyl)ethyl)thio)-6-(hydroxymethyl)-4-(4-(3,4,5-trifluorophenyl)-1H-1,2,3-triazol-1-yl)tetrahydro-2H-pyran-3,5-diol]
17 | 1900 nM | 3710 nM | – | CC(C)(O)C(S[C@@H]1O[C@H](CO)[C@H](O)[C@H](n2cc(-c3cc(F)c(F)c(F)c3)nn2)[C@H]1O)c1ccccc1 (stereo partly drawn) [Example 2.31.100., (2S,3R,4S,5R,6R)-2-((2-Hydroxy-2-methyl-1-phenylpropyl)thio)-6-(hydroxymethyl)-4-(4-(3,4,5-trifluorophenyl)-1H-1,2,3-triazol-1-yl)tetrahydro-2H-pyran-3,5-diol]
18 | 120 nM | 1420 nM | – | Cc1ccccc1[C@@H](S[C@@H]1O[C@H](CO)[C@H](O)[C@H](n2cc(-c3cc(F)c(F)c(F)c3)nn2)[C@H]1O)C(C)(C)O [Example 2.31.102R., (2S,3R,4S,5R,6R)-2-(((R)-2-Hydroxy-2-methyl-1-(o-tolyl)propyl)thio)-6-(hydroxymethyl)-4-(4-(3,4,5-trifluorophenyl)-1H-1,2,3-triazol-1-yl)tetrahydro-2H-pyran-3,5-diol]
19 | 4430 nM | 6980 nM | – | Cc1ccccc1[C@H](S[C@@H]1O[C@H](CO)[C@H](O)[C@H](n2cc(-c3cc(F)c(F)c(F)c3)nn2)[C@H]1O)C(C)(C)O [Example 2.31.102S., (2S,3R,4S,5R,6R)-2-(((S)-2-Hydroxy-2-methyl-1-(o-tolyl)propyl)thio)-6-(hydroxymethyl)-4-(4-(3,4,5-trifluorophenyl)-1H-1,2,3-triazol-1-yl)tetrahydro-2H-pyran-3,5-diol]
